Measurements taken from paper PMC9181899, “Synthesis and Anticancer Properties of New 3-Methylidene-1-sulfonyl-2,3-dihydroquinolin-4(1H)-ones” (Molecules, 2022).
Like-named read-outs stand apart in the source and are kept apart here.

Legend:
ABCB1 gene expression = test: Real-time PCR of ABCB1 mRNA level in HL-60 cells; type: cell-based; details: higher concentration (1.8 µM; 0.9 and 1.8 µM tested), 24 h
Text: Overexpression of ATP-binding cassette (ABC) transporters causing multidrug resistance (MDR) in cancer cells is one of the major problems associated with poor therapeutic outcome of anticancer drugs. ABC transporters reduce the cellular uptake of drugs into cancer cells, defending them from medical interventions. In leukemia cells ABCB1 (P-glycoprotein), overexpression has been observed. […] It seemed interesting to determine if 3-methylidenequinolin-4-one 5a would also down-regulate ABCB1 mRNA levels in leukemia HL-60 cells. Here, we tested the ABCB1 gene expression of 5a at two concentrations, 0.9 and 1.8 µM. Compound 5a decreased the ABCB1 mRNA level at a higher concentration (Figure 6).
The mRNA level of the ABCB1 gene was assessed using quantitative real-time PCR. Briefly, HL-60 cells were seeded in 6-well plates (4.0 × 10^5 cells/mL) in 2 mL of growth medium and treated with 5a for 24 h. Total RNA was extracted using the Total RNA Mini Kit (A&A Biotechnology, Gdynia, Poland) according to the manufacturer’s protocol. The concentration of RNA used for further experiments was 500 ng. cDNA was synthesized using Transcriba Kit (A&A Biotechnology, Gdynia, Poland). […] The expression level of ABCB1 gene was determined by the 2^−∆∆CT method.

HL-60 cells [1] = test: DNA damage by H2AX (pS139) staining, flow cytometry; type: cell-based, human; details: 24 h; for increase of phosphorylated H2AX level: vs control
Method: (§1) To evaluate the anticancer potential of 5a, the ability of this compound to inhibit cell proliferation, induce apoptotic cell death, and generate DNA damage was examined by flow cytometry using the ‘Apoptosis, DNA Damage, and Cell Proliferation Kit’ (BD Bioscience). After 24 h treatment with 5a in increasing concentrations, HL-60 cells were exposed to bromodeoxyuridine (BrdU) for additional 8 h. Then, the cells were simultaneously stained with fluorochrome-labeled anti-BrdU, anti-cleaved PARP (Asp214) and anti-H2AX (pS139).
It is well documented that apoptosis induced by many anticancer drugs may be a consequence of DNA damage. Chemical genotoxins that target DNA can inhibit DNA replication, which leads to the collapse of replication forks and the formation of DNA double strand breaks (DSBs). The generation of DNA damage was evaluated using anti-H2AX (pS139) antibodies directed against the phosphorylated form of human H2AX protein at the pS139 residue that is considered to be a biomarker for DNA DSBs. The treatment of HL-60 cells with 5a increased the levels of phosphorylated H2AX by 4.7- and 7.8-fold (to 1.35 µM and 1.9 µM, respectively), indicating the dose-dependent genotoxic effect of the tested compound (Figure 4c).
(§2) Cell proliferation, DNA damage, and apoptotic cell death were determined using Apoptosis, DNA Damage, and Cell Proliferation Kit (BD Bioscience, San Jose, CA, USA), according to the manufacturer protocol. Briefly, HL-60 cells were seeded in 6-well plates (4.0 × 10^5 cells/mL) in 2 mL of growth medium and treated with 5a for 24 h. Afterwards, the bromodeoxyuridine (BrdU, 10 µM) was added and the cells were incubated for additional 8 h. Next, the cells were collected by centrifugation (300× g, 5 min), counted, fixed, and permeabilized according to the manufacturer’s instructions. The cells were incubated with DNase (300 µg/mL in PBS) for 1 h at 37 °C and then simultaneously stained with fluorochrome-labeled anti-BrdU, H2AX (pS139), and cleaved PARP (Asp214) antibodies, for 20 min at room temperature. After washing, DNA staining with DAPI (1 µg/mL of the staining buffer) was performed, and the cells were analyzed by flow cytometry using CytoFLEX (Beckman Coulter, Inc., Brea, CA, USA).

HL-60 cells [2] = test: Cell proliferation by BrdU incorporation, flow cytometry; type: cell-based; details: 1.8 µM
Method: as §1
BrdU is an analog of thymidine, and its incorporation into DNA was used as an index of cell proliferation. […] At 1.8 µM concentration, this analog caused a 2.2-fold decrease in BrdU incorporation (Figure 4a).
as §2, with “Afterwards, the bromodeoxyuridine (BrdU, 10 µM) was added and the cells were incubated for additional 8 h.” left out, “The cells were incubated with DNase (300 µg/mL in PBS) for 1 h at 37 °C and then simultaneously stained with fluorochrome-labeled anti-BrdU, H2AX (pS139), and cleaved PARP (Asp214) antibodies, for 20 min at room temperature.” left out

HL-60 cells [3] = test: MTT in vitro cytotoxicity assay, HL-60; type: cell-based; details: Homo sapiens
Method: The promyelocytic leukemia HL-60 and breast cancer adenocarcinoma MCF-7 cell lines were purchased from the European Collection of Cell Cultures (ECACC). Leukemia cells were cultured in RPMI 1640 plus GlutaMax I medium (Gibco/Life Technologies, Carlsbad, CA, USA). MCF-7 cells were maintained in Minimum Essential Medium Eagle (Sigma Aldrich, St. Louis, MO, USA) and supplemented with 2 mM glutamine and men non-essential amino acid solution (Sigma Aldrich, St. Louis, MO, USA). Both media were supplemented with 10% heat-inactivated fetal bovine serum (Biological Industries, Beit-Haemek, Israel) and antibiotics (100 U/mL penicillin and 100 μg/mL streptomycin) (Sigma-Aldrich, St. Louis, MO, USA). Human umbilical vein endothelial cells (HUVECs) were purchased from the American Type Culture Collection (ATCC). Cells were cultured using EGM-2 Endothelial Medium BulletKit purchased from Lonza (Lonza, Walkersville, MD, USA). Cells were maintained at 37 °C in 5% CO2 atmosphere and grown until 80% confluent.
The tested compounds were dissolved in sterile dimethyl sulfoxide (DMSO) and further diluted with culture medium. The final concentration of DMSO in cell cultures was less than 0.1% v/v. Controls without and with 0.1% DMSO were performed in each experiment. At the used concentration, DMSO had no effect on the observed parameters.
The MTT (3-(4,5-dimethylthiazol-2-yl)-2,5-diphenyltetrazolium bromide) assay, which measures the activity of cellular dehydrogenases, was performed according to the Mosmann method. Exponentially growing cells were seeded into 24-well plates at a density of 8 × 10^4 cells/mL and left to grow for 24 h. After 24 h or 48 h of incubation with various concentrations of the tested compounds (dissolved in DMSO and diluted with complete culture medium), cells were incubated with 0.1 mL of MTT solution (5 mg/mL in phosphate buffered saline) for 1.5 h. The metabolically active cells reduced MTT to blue formazan crystals. The plates were centrifuged, and the supernatant was discarded. DMSO (1 mL) was added to each well to dissolve the crystals, whose absorbance was measured at 560 nm using FlexStation 3 Multi-Mode Microplate Reader (Molecular Devices, LLC, San Jose, CA, USA). The untreated cells were used as control. The IC50 values were calculated from the concentration–response curves. The data were expressed as mean ± SEM of three independent experiments.

## C=C1C(=O)c2ccccc2N(S(=O)(=O)c2ccccc2)C1CC (stereo not drawn) [Compound 5a, 2-Ethyl-3-methylidene-1-(phenylsulfonyl)-2,3-dihydroquinolin-4(1H)-one]
ABCB1 gene expression
  ABCB1 mRNA level: decreased
HL-60 cells [1]; 1.35 µM
  increase of phosphorylated H2AX level: 4.7 fold
HL-60 cells [1]; 1.8 µM, Figure 3b
  Q1: H2AX (pS139) positive, cleaved PARP negative cells (representative plot): 5.0%
  Q2: H2AX (pS139) and cleaved PARP positive cells (representative plot): 13.2%
HL-60 cells [1]; 1.9 µM
  increase of phosphorylated H2AX level: 7.8 fold
HL-60 cells [2]; 24 h, Figure 3a
  BrdU positive cells (representative plot): 17.5%
HL-60 cells [2]; 24 h treatment then BrdU 8 h, vs control
  decrease in BrdU incorporation: 2.2 fold
HL-60 cells [3]; HL-60, 24 h, 24 h incubation, read-out: IC50 HL-60 after 24 h incubation
  IC50: 910 ± 30 nM
HL-60 cells [3]; HL-60, 48 h, 48 h incubation, mean ± SEM, read-out: IC50 HL-60
  IC50: 340 ± 30 nM
